The source of these data is PubChem BioAssay (NCI).

Values joined by “and” are separate entries in the source; they are usually repeats but may differ in a detail not shown here. Equal entries are not always repeated.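 Briefly, cells in 96-well plates were exposed to five compound concentrations for 48 h, and endpoints were estimated by linear interpolation. GI50 marks 50% less growth. TGI marks complete inhibition of growth.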 Bounds are passed on as bounds.

For one assay, the system named is A498 renal. In words: NCI anticancer screen, dose series, 48 h.
In turn, `COC1(OC)CCc2c(sc3ncnc(Nc4cccc(Br)c4)c23)C1` returned a TGI of more than 100 µM.

As for `CCOC(=O)c1cn(CC)c(=O)n2c1nc1ccccc12`, the TGI is more than 100 µM.

As for `COc1ccc(-c2oc3cc(-c4cc5oc(-c6ccc(OC)cc6)c(-c6ccc(OC)cc6)c5cc4OC)c(OC)cc3c2-c2ccc(OC)cc2)cc1`, the TGI was more than 100 µM.

`O=C(NCCC1CNc2ccccc21)OCc1ccccc1` (centres undefined): the TGI was more than 100 µM.

Take `CSC(=O)/C=C1\SS/C(=C\C(=O)SC)S1`: the TGI was 21.5 µM.

For the compound `CC(N)(CC(O)(C(F)(F)Cl)C(F)(F)Cl)C(=O)O` (centres undefined), the TGI was more than 10 µM.

Take `CC(SC(=S)N1CCOCC1)C(=O)Nc1nnc(-c2ccc(Cl)cc2)o1` (centres undefined): the TGI is more than 100 µM.

Take `O=C(CCc1cc(O)cc(O)c1)NCCc1cc(O)cc(OCc2ccccc2)c1`: the TGI was more than 100 µM.

`COC(=O)/C=C/c1ccc(OP(=O)(O)O)c(OC)c1` gave a TGI of more than 100 µM.

`COc1cc2nc(Cl)nc(NS(=O)(=O)c3cc4ccccc4s3)c2cc1OC` returned a TGI of 35.3 µM.

For the compound `O=c1c(-c2ccccc2)nnc2n(Cc3ccccc3)c3ccccc3n12`, the TGI was more than 100 µM.

Compound `COC(=O)c1c(C)cccc1/C=C1\Cc2ccc(C)c(C)c2C1=O` showed a TGI of more than 100 µM.

Regarding `COc1cc([C@@H]2c3cc4c(cc3[C@@H](Nc3ccc(NC(=O)c5cc([N+](=O)[O-])cn5C)cc3)[C@H]3COC(=O)[C@H]23)OCO4)cc(OC)c1O`, the GI50 was 0.0233 µM and 0.0897 µM; the TGI was 0.402 µM and 0.476 µM.

Compound `COc1ccc(/C(Nc2ccccc2)=C(\CCl)c2ccccc2)cc1OC` came in with a TGI of more than 100 µM.

The subject of the next assay is MALME-3M melanoma. In words: NCI anticancer screen, dose series, 48 h.
Compound `COC1(OC)CCc2c(sc3ncnc(Nc4cccc(Br)c4)c23)C1` showed a TGI of more than 100 µM.

`O=[N+]([O-])c1ccc(/C=N/Nc2nc3ccccc3[nH]2)o1` registered a TGI of 30.7 µM.

For `COc1ccc(-c2oc3cc(-c4cc5oc(-c6ccc(OC)cc6)c(-c6ccc(OC)cc6)c5cc4OC)c(OC)cc3c2-c2ccc(OC)cc2)cc1`, the TGI was more than 100 µM.

With `C[C@H]1CC[C@@]2(OC1)O[C@H]1C[C@H]3[C@@H]4CC[C@@H]5C[C@@H](OC6OC(CO)C(O)C(O)C6OC6OC(CO)C(O)C(O)C6O)CC[C@]5(C)[C@H]4CC[C@]3(C)[C@H]1[C@@H]2C` (some centres undefined), the TGI was found to be 4.5 µM.

For the compound `O=C(NCCC1CNc2ccccc21)OCc1ccccc1` (centres undefined), the TGI is more than 100 µM.

The compound `CCN1/C(=C/C#C/C(C)=C\c2sc3ccc(Cl)cc3[n+]2CC)Sc2ccc(Cl)cc21` yielded a TGI of 6.84 µM.

Consider `CSC(=O)/C=C1\SS/C(=C\C(=O)SC)S1`, for which the TGI amounted to 4.6 µM.

For `CC(N)(CC(O)(C(F)(F)Cl)C(F)(F)Cl)C(=O)O` (centres undefined), the TGI is more than 10 µM.

For `COc1ccc(CCCCNCc2cccc(CNCCCCc3ccc(OC)cc3)c2)cc1`, the TGI came out at 3.6 µM.

On to `CC(SC(=S)N1CCOCC1)C(=O)Nc1nnc(-c2ccc(Cl)cc2)o1` (centres undefined), for which the TGI was more than 100 µM.

`COC(=O)/C=C/c1ccc(OP(=O)(O)O)c(OC)c1` registered a TGI of more than 100 µM.

On to `COc1cc2nc(Cl)nc(NS(=O)(=O)c3cc4ccccc4s3)c2cc1OC`, for which the TGI was more than 100 µM.

`O=c1c(-c2ccccc2)nnc2n(Cc3ccccc3)c3ccccc3n12` had a TGI of more than 100 µM.

As to `COC(=O)c1c(C)cccc1/C=C1\Cc2ccc(C)c(C)c2C1=O`, the TGI is more than 100 µM.

Consider `COc1cc([C@@H]2c3cc4c(cc3[C@@H](Nc3ccc(NC(=O)c5cc([N+](=O)[O-])cn5C)cc3)[C@H]3COC(=O)[C@H]23)OCO4)cc(OC)c1O`, for which the GI50 is 0.279 µM and 0.115 µM.

Regarding `COc1ccc(/C(Nc2ccccc2)=C(\CCl)c2ccccc2)cc1OC`, the TGI was more than 100 µM.

In another assay the test system is SN12C renal. In words: NCI anticancer screen, dose series, 48 h.
Take `COC1(OC)CCc2c(sc3ncnc(Nc4cccc(Br)c4)c23)C1`: the TGI was more than 100 µM.

The compound `CCOC(=O)c1cn(CC)c(=O)n2c1nc1ccccc12` had a TGI of more than 100 µM.

`O=[N+]([O-])c1ccc(/C=N/Nc2nc3ccccc3[nH]2)o1`: the TGI worked out at 32.6 µM.

Turning to `COc1ccc(-c2oc3cc(-c4cc5oc(-c6ccc(OC)cc6)c(-c6ccc(OC)cc6)c5cc4OC)c(OC)cc3c2-c2ccc(OC)cc2)cc1`, the TGI was more than 100 µM.

The compound `C[C@H]1CC[C@@]2(OC1)O[C@H]1C[C@H]3[C@@H]4CC[C@@H]5C[C@@H](OC6OC(CO)C(O)C(O)C6OC6OC(CO)C(O)C(O)C6O)CC[C@]5(C)[C@H]4CC[C@]3(C)[C@H]1[C@@H]2C` (some centres undefined) showed a TGI of 3.77 µM.

On to `CCN1/C(=C/C#C/C(C)=C\c2sc3ccc(Cl)cc3[n+]2CC)Sc2ccc(Cl)cc21`, for which the TGI stood at 16.1 µM.

`CSC(=O)/C=C1\SS/C(=C\C(=O)SC)S1`: the TGI stood at 3.79 µM.

`CC(N)(CC(O)(C(F)(F)Cl)C(F)(F)Cl)C(=O)O` (centres undefined) had a TGI of more than 10 µM.

`COc1ccc(CCCCNCc2cccc(CNCCCCc3ccc(OC)cc3)c2)cc1` displayed a TGI of 3.64 µM.

As to `CC(SC(=S)N1CCOCC1)C(=O)Nc1nnc(-c2ccc(Cl)cc2)o1` (centres undefined), the TGI was more than 100 µM.

In the case of `O=C(CCc1cc(O)cc(O)c1)NCCc1cc(O)cc(OCc2ccccc2)c1`, the TGI was more than 100 µM.

Turning to `COC(=O)/C=C/c1ccc(OP(=O)(O)O)c(OC)c1`, the TGI was more than 100 µM.

The compound `COc1cc2nc(Cl)nc(NS(=O)(=O)c3cc4ccccc4s3)c2cc1OC` displayed a TGI of 90.6 µM.

For `O=c1c(-c2ccccc2)nnc2n(Cc3ccccc3)c3ccccc3n12`, the TGI was more than 100 µM.

The compound `COC(=O)c1c(C)cccc1/C=C1\Cc2ccc(C)c(C)c2C1=O` gave a TGI of more than 100 µM.

For `COc1cc([C@@H]2c3cc4c(cc3[C@@H](Nc3ccc(NC(=O)c5cc([N+](=O)[O-])cn5C)cc3)[C@H]3COC(=O)[C@H]23)OCO4)cc(OC)c1O`, the GI50 was 0.0231 µM and 0.055 µM; the TGI is 0.262 µM and 0.437 µM.

As for `COc1ccc(/C(Nc2ccccc2)=C(\CCl)c2ccccc2)cc1OC`, the TGI is more than 100 µM.
